Literature values, collected in patent US20240274252A1, “Dosage Calculator” (Closed Loop Medicine Ltd., priority 2023, published 2024).
Values joined by “and” are separate entries in the source; they are usually repeats but may differ in a detail not shown here. Equal entries are not always repeated. Where two headings read alike, the source gives them in different places.

Legend:
[1] = model input parameter, FIG. 4A
[2] = not given; remark: listed apart in the source
[3] = patient population
[4] = for time to peak levels: immediate release
[5] = not given; remark: listed apart in the source

Q: For `[H]/N=C(/N)c1ccc(NCc2nc3cc(C(=O)N(CCC(=O)O)c4ccccn4)ccc3n2C)cc1` [dabigatran], which “Change in Drug Level Exposure (AUC)” value (Age, per year older compared to 72 yr) is on record?
A: 0.41% increase per year older compared to 72 yr

Q: And the “Change in Drug Level Exposure (AUC)” value (Amiodarone co-administration)?
A: 12% increase

Q: And the “Change in Drug Level Exposure (AUC)” value (CrCl = 30, relative to median CrCl of 69 in RE-LY)?
A: 1.8 fold increase

Q: And the “Change in Drug Level Exposure (AUC)” value (CrCl = 50, relative to median CrCl of 69 in RE-LY)?
A: 1.3 fold increase

Q: What about the “decrease in Vd” value (Hb above 14.3 g · dL^−1) of the same compound?
A: 4 %/1 g · dL^−1

Q: And the “Change in Drug Level Exposure (AUC)” value (PPIs co-administration)?
A: ~13% decrease

Q: And the “Change in Drug Level Exposure (AUC)” value (South Asians compared to other ethnicities)?
A: ~26% increase in South Asians compared to other

Q: What about the “Change in Drug Level Exposure (AUC)” value (Verapamil co-administration) of the same compound?
A: 23% increase

Q: And the “Change in activity: chance of bleeding” value (coadministration of Asprin, clopidogrel)?
A: Coadministration will increase chance of bleeding

Q: And the “Change in Drug Level Exposure (AUC)” value (covariate Haemoglobin)?
A: no effect on AUC

Q: And the “Change in Drug Level Exposure (AUC)” value (covariate Weight)?
A: Weight had no effect on AUC but increase in distribution

Q: And the “Change in Drug Level Exposure (AUC)” value (females compared to men)?
A: ~9% increase in females compared to men

Q: What about the “effect on Cmax” value (low weight) of the same compound?
A: will increase Cmax

Q: And the “Change in Drug Level Exposure (AUC)” value (patients with heart failure)?
A: ~7% increase in patients with HF

Q: What about the “Ka, first order drug absorption rate constant” value [1] of the same compound?
A: 0.754

Q: And the “Q, intercompartmental clearance” value [1]?
A: 35.5

Q: What about the “Vc, central compartment volume” value [1] of the same compound?
A: 673

Q: What about the “Vp, peripheral compartment volume” value [1] of the same compound?
A: 345

Q: What about the “increase in maximum concentration, Cmax” value ([2]; with Quinidine) of the same compound?
A: 56%

Q: What about the “increase in total absorption” value ([2]; with Quinidine) of the same compound?
A: 53%

Q: And the “increase in total exposure” value ([2]; with ketoconazole)?
A: ~1.4 fold

Q: And the “increase in total exposure” value ([2]; with verapamil, depending on when the drug is taken)?
A: 2.4 fold

Q: And the “range of trough plasma levels” value ([3]; 110 mg dose)?
A: 25 to 160 ng/mL

Q: What about the “range of trough plasma levels” value ([3]; 150 mg dose) of the same compound?
A: 40 to 220 ng/mL

Q: What about the half-life ([4]; elimination after absorption) of the same compound?
A: 12 to 17 h and 12 to 14 h

Q: And the “acyl glucuronides, mean share of parent drug in the plasma” value ([4]; equally active metabolites)?
A: ~10%

Q: And the “time to peak levels” value ([4]; after food)?
A: 3 to 4 h

Q: And the “time to peak levels” value ([4]; taken without food)?
A: approximately 1 hour

Q: And the PK linearity ([4]; in vivo)?
A: linear

Q: And the mean half-life ([4]; in vivo)?
A: 12 h

Q: What about the “share of absorbed drug eliminated into urine” value ([4]; in vivo) of the same compound?
A: 80%

Q: And the “variability in circulating plasma levels” value ([4]; inter-subject, from prodrug conversion and low GI absorption)?
A: up to 50%

Q: And the “remainder of the drug going into the faeces” value ([4]; oral)?
A: ~90%

Q: What about the “time of peak absorption” value ([4]; oral) of the same compound?
A: ~1 h

Q: And the “fraction of the drug absorbed from the GI tract” value ([4]; oral, after conversion from prodrug dabigatran etexilate)?
A: ~5% and 3-7%

Q: And the increase in availability ([4]; pellets removed from the capsule)?
A: 75%

Q: What about the “elimination via the kidney, share of total clearance” value ([4]; primary route of elimination) of the same compound?
A: 80%

Q: What about the “total and peak systemic exposure versus dose” value ([4]; range 50-400 mg twice daily) of the same compound?
A: dose-proportional

Q: And the “delay of the peak by food” value ([4]; with food, total absorption not affected)?
A: ≤ 2 h

Q: Which “risk of intracranial bleeds compared with warfarin” value ([5]; RELY) does the source give for `CCCCCCOC(=O)NC(=N)c1ccc(NCc2nc3cc(C(=O)N(CCC(=O)OCC)c4ccccn4)ccc3n2C)cc1` [Dabigatran etexilate] here?
A: small reduction

Q: And the comparison with warfarin ([5]; phase III RELY study, patients with nonvalvular AF)?
A: superior to warfarin
